Test results: ChEMBL document CHEMBL3739307, “Synthesis and multiparametric evaluation of thiadiazoles and oxadiazoles as diacylglycerol acyltransferase type 1 inhibitors” (Bioorg Med Chem Lett, 2016)

Columns and labels:
[1] = system: Liver microsome; assay: Metabolic stability in human liver microsomes; format: ADME
[2] = Metabolic stability in mouse liver microsomes; format: ADME
[3] = system: Liver microsome; assay: Metabolic stability in rat liver microsomes; format: ADME
[4] = Permeability across human Caco2 cells; format: ADME, cell-based; conditions: Caco-2, read-out: permeability
[5] = Oral bioavailability in rat; format: ADME, organism-based; conditions: in vivo
[6] = Cmax in rat plasma at 10 mg/kg, po administered as single dose; format: ADME, organism-based; design: dose 10 mg/kg, route oral
[7] = Cmax in rat liver at 10 mg/kg, po administered as single dose; format: ADME, organism-based; design: dose 10 mg/kg, route oral
[8] = Cmax in rat small intestine at 10 mg/kg, po administered as single dose; format: ADME, organism-based; design: dose 10 mg/kg, route oral
[9] = Cmax in rat heart at 10 mg/kg, po administered as single dose; format: ADME, organism-based; design: dose 10 mg/kg, route oral
[10] = Cmax in rat brain at 10 mg/kg, po administered as single dose; format: ADME, organism-based; design: dose 10 mg/kg, route oral
[11] = Half life in rat plasma at 10 mg/kg, po administered as single dose; format: ADME, organism-based
[12] = Tmax in rat at 10 mg/kg, po administered as single dose; format: ADME, organism-based; conditions: in vivo

Stability [1]	Stability [2]	Stability [3]	Papp [4]	bioavailability [5]	Cmax [6]	Cmax [7]	Cmax [8]	Cmax [9]	Cmax [10]	half-life [11]	Tmax [12]	Structure (SMILES)
0%	5%	11%	–	–	–	–	–	–	–	–	–	O=C(O)C[C@H]1CC[C@H](c2ccc(C(=O)Nc3nnc(Cc4ccccc4)s3)cc2)CC1
2%	3%	4%	0.6 ×10⁻⁶ cm/s	–	–	–	–	–	–	–	–	O=C(Nc1nnc(NC2CCCC2)s1)c1ccc(O[C@H]2CC[C@@H](C(=O)O)CC2)cc1
2%	100%	53%	2.9 ×10⁻⁶ cm/s	–	–	–	–	–	–	–	–	O=C(Nc1nc(Cc2ccccc2)no1)c1ccc(O[C@H]2CC[C@@H](C(=O)O)CC2)cc1
3%	0%	0%	10.3 ×10⁻⁶ cm/s	–	–	–	–	–	–	–	–	O=C(O)C[C@H]1CC[C@H](c2ccc(C(=O)Nc3nnc(COC4CCCC4)s3)cc2)CC1
1%	99%	61%	0.9 ×10⁻⁶ cm/s	–	–	–	–	–	–	–	–	O=C(Nc1nc(Cc2cc(F)cc(F)c2)no1)c1ccc(O[C@H]2CC[C@@H](C(=O)O)CC2)cc1
1%	42%	9%	2.9 ×10⁻⁶ cm/s	4%	–	–	–	–	–	–	–	O=C(Nc1nnc(Cc2cc(F)cc(F)c2)s1)c1ccc(O[C@H]2CC[C@@H](C(=O)O)CC2)cc1
5%	8%	1%	4.1 ×10⁻⁶ cm/s	–	–	–	–	–	–	–	–	O=C(Nc1nnc(COC2CCCC2)s1)c1ccc(O[C@H]2CC[C@@H](C(=O)O)CC2)cc1
9%	8%	3%	7.2 ×10⁻⁶ cm/s	–	–	–	–	–	–	–	–	O=C(O)C[C@H]1CC[C@H](c2ccc(C(=O)Nc3nnc(CCC4CCCO4)s3)cc2)CC1 (stereo not given in full)
11%	8%	4%	0.6 ×10⁻⁶ cm/s	–	–	–	–	–	–	–	–	O=C(Nc1nnc(Nc2ccccc2)s1)c1ccc(O[C@H]2CC[C@@H](C(=O)O)CC2)cc1
3%	27%	22%	1.5 ×10⁻⁶ cm/s	–	–	–	–	–	–	–	–	O=C(Nc1nnc(Cc2ccccc2)s1)c1ccc(O[C@H]2CC[C@@H](C(=O)O)CC2)cc1
1%	23%	37%	1.1 ×10⁻⁶ cm/s	–	–	–	–	–	–	–	–	O=C(Nc1nnc(Cc2ccccc2)s1)c1ccc(O[C@H]2CC[C@@H](C(=O)O)CC2)nc1
1%	9%	8%	3 ×10⁻⁶ cm/s	–	–	–	–	–	–	–	–	O=C(Nc1nnc(Cc2cc(F)cc(F)c2)s1)c1ccc(O[C@H]2CC[C@H](C(=O)O)CC2)cc1
2%	56%	27%	1.7 ×10⁻⁶ cm/s	–	–	–	–	–	–	–	–	O=C(Nc1nnc(Cc2cccc(Cl)c2)s1)c1ccc(O[C@H]2CC[C@@H](C(=O)O)CC2)nc1
–	–	–	–	40%	13.2 µM	248 µM	14.3 µM	4.2 µM	0.16 µM	7.4 h	4 h	NCCCC[C@H](N)C(=O)O.O=C(Nc1nnc(Cc2cc(F)cc(F)c2)s1)c1ccc(O[C@H]2CC[C@@H](C(=O)O)CC2)cc1
